Experimental data published in the supplement of paper PMC11061612.

Key:
[1] = tested on: ATN-1 (T-Lymphoblastic Leukemia); assay: Bliss excess, mean over the matrix (fraction); higher = more synergy
Method in brief: (§1)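 After 24 hours at 37°C and 5% CO2 in 1536-well plates, cells in DMEM/F12 or RPMI plus 10% FBS received two-drug dose matrices for 72 hours. Viability came from CellTiter-Glo 2.0 luminescence and was scaled as inhibition, anchored at 0 by vehicle wells and at 1 by blank wells. Combination Emax is taken as the second-highest inhibition in the matrix, and Bliss excess as the observed combination effect less EA + EB − EA·EB, with EA and EB the single-agent effects.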

[2] = tested on: NCI-H2023 (Non-Small Cell Lung Carcinoma); assay: as above
Method in brief: as §1

[3] = tested on: NTERA-2-cl-D1 (Other Solid Carcinomas); assay: as above
Method in brief: as §1

MG-63 (Osteosarcoma) = assay: as above
Method in brief: as §1

NCI-H2452 (Mesothelioma) = assay: as above
Method in brief: as §1

[4] = tested on: MDA-MB-175-VII (Breast Carcinoma); assay: as above
Method in brief: as §1

HT-144 (Melanoma) = assay: as above
Method in brief: as §1

[5] = tested on: OCI-M1 (Acute Myeloid Leukemia); assay: as above
Method in brief: as §1

[6] = tested on: GRANTA-519 (B-Cell Non-Hodgkin's Lymphoma); assay: combination Emax (second highest fraction inhibited in the dose matrix, 72 h); higher = more inhibition; extreme values may be limits of the assay
Method in brief: as §1

[7] = tested on: KNS-62 (Squamous Cell Lung Carcinoma); assay: as above
Method in brief: as §1

[8] = tested on: L-363 (Plasma Cell Myeloma); assay: as above
Method in brief: as §1

[9] = tested on: HT-3 (Cervical Carcinoma); assay: as above
Method in brief: as §1

[10] = tested on: NCI-H2170 (Squamous Cell Lung Carcinoma); assay: as above
Method in brief: as §1

[11] = tested on: IGROV-1 (Ovarian Carcinoma); assay: as above
Method in brief: as §1

[12] = tested on: SUP-HD1 (Hodgkin's Lymphoma); assay: as above
Method in brief: as §1

[13] = tested on: MDA-MB-175-VII (Breast Carcinoma); assay: as above
Method in brief: as §1

[14] = tested on: MRK-nu-1 (Breast Carcinoma); assay: as above
Method in brief: as §1

[15] = tested on: NCI-H1435 (Non-Small Cell Lung Carcinoma); assay: as above
Method in brief: as §1

GCIY (Gastric Carcinoma) = assay: as above
Method in brief: as §1

[16] = tested on: HT-1197 (Bladder Carcinoma); assay: as above
Method in brief: as §1
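For Bliss excess, mean over the matrix in this document: after 72 h of two-drug dosing.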

Row | SMILES | Bliss excess [1] | Bliss excess [2] | Bliss excess [3] | Bliss excess (MG-63 (Osteosarcoma)) | Bliss excess (NCI-H2452 (Mesothelioma)) | Bliss excess [4] | Bliss excess (HT-144 (Melanoma)) | Bliss excess [5] | combination Emax [6] | combination Emax [7] | combination Emax [8] | combination Emax [9] | combination Emax [10] | combination Emax [11] | combination Emax [12] | combination Emax [13] | combination Emax [14] | combination Emax [15] | combination Emax (GCIY (Gastric Carcinoma)) | combination Emax [16]
1 | COc1cccc(OCCCN)c1-c1cc(Nc2cnc(C#N)cn2)n[nH]1 [Prexasertib] + C=CCn1c(=O)c2cnc(Nc3ccc(N4CCN(C)CC4)cc3)nc2n1-c1cccc(C(C)(C)O)n1 [AZD1775] (first compound max 1 µM, partner max 1 µM) | 0.0134 | 0.0205 | 0.19 | 0.141 | 0.0473 | 0.106 | 0.0666 | 0.0152 | 0.867 | 0.684 | 1 | 0.75 | 0.95 | 0.788 | 0.906 | 0.424 | 0.942 | 0.403 | 0.911 | 0.646
2 | CN(C)CCCOc1ccc(-c2ccc3ncc4c(c3c2)n(C2CCOCC2)c(=O)n4C)cn1 [AZD0156] + C[C@@H]1COCCN1C2=NC(=NC(=C2)C3(CC3)[S@](=N)(=O)C)C4=C5C=CNC5=NC=C4 [AZD6738] (first compound max 1 µM, 7x7, partner max 10 µM) | -0.0052 | -0.021 | -0.0472 | -0.0056 | -0.0547 | -0.0122 | -0.0484 | 0.0352 | 0.82 | 0.485 | 0.92 | 0.609 | 0.799 | 0.724 | 0.785 | 0.342 | 0.648 | 0.158 | 0.851 | 0.526
3 | NC1(C(=O)N[C@@H](CCO)c2ccc(Cl)cc2)CCN(c2ncnc3[nH]ccc23)CC1 [Capivasertib] + C[C@@H]1COCCN1C2=NC(=NC(=C2)C3(CC3)[S@](=N)(=O)C)C4=C5C=CNC5=NC=C4 [AZD6738] (first compound max 10 µM, 7x7, partner max 10 µM) | -0.0127 | 0.0282 | -0.0258 | -0.0524 | -0.0827 | -0.0407 | -0.0292 | 0.0211 | 0.892 | 0.738 | 0.824 | 0.575 | 0.809 | 0.865 | 0.762 | 0.683 | 0.605 | 0.26 | 0.751 | 0.491
